Test results reported in patent US20240361338A1, “DIAGNOSIS AND TREATMENT OF ECTOPIC ENDOMETRIOSIS” (FERRING B.V., priority 2021, published 2024).

Experiments:
[1] = system: VEGF; assay: VEGF levels in the E-MSC-HUVEC coculture model; format: cell-based, human; details: quinagolide treated coculture
Method: An indirect co-culture assembly was obtained plaiting HUVECs and E-MSCs at a ratio of 1:1 (1.5×10^4/cell line) in E-MSC medium in T25 and maintaining the co-culture for 48 h in 37° C. and 5% CO2 atmosphere incubator. HUVECs and E-MSCs cultured alone were used as control for each experiment.

[2] = system: ectopic E-MSCs; assay: Matrigel transwell invasion assay, ectopic E-MSCs; format: cell-based, human
Method: FIG. 4: Quinagolide effect on EMSCs invasion. A and B: Representative micrographs (A) and quantification (B) of quinagolide effect (100 nM) on eutopic and ectopic (both ovarian and peritoneal) EMSCs invasion (original magnification: ×100). C: Concentration response effect of quinagolide treated ectopic EMSCs invasion. D and E: Quantification (D) and representative micrographs (E) (original magnification: ×100) of invasion assays performed on ectopic EMSCs (both ovarian and peritoneal), treated with 100 nM quinagolide (Q100 nM), 5 μM spiperone(S) or a combination of quinagolide and spiperone (S+Q100 nM). All invasion data are represented as mean±SD of at least three independent experiments, performed on different EMSC lines, and normalized to untreated cells (CTL). One-way ANova was performed: *=p<0.05 and **=p<0.001 vs CTL. Quinagolide powder (provided by Ferring Pharmaceuticals) was stored at 4° C. and resuspended in dimethylsulphoxide (DMSO) to a stock solution of 1 mM immediately before use. Spiperone powder (Sigma-Aldrich) was resuspended in water to a stock concentration of 1 mM and stored at −20° C. Cabergoline powder (Sigma-Aldrich) was dissolved in DMSO to a stock concentration of 25 mM and stored at −20° C. […] Quinagolide, cabergoline, sorafenib and cabozantinib and were administered for 24 hours during co-culture experiments, while spiperone was added to culture medium 1 h before quinagolide treatment. […] E-MSCs were seeded in triplicate in Matrigel-precoated (100 μg Matrigel/transwell) 8-um pore transwells at a concentration of 50,000 cells per well in 200 μl of RPMI 2% FCS with/without quinagolide at the indicated concentration. To test the D2 antagonist effect, E-MSCs were pre-treated with spiperone (5 μM) for 1 h at 37° C. before cell detachment. After 48 hours, invaded E-MSCs on the bottom side of the transwell were fixed with methanol and stained with crystal violet. At least five pictures per transwell were acquired (original magnification: 100×), and the percentage of transwell area covered by invaded EMSCs was quantitatively measured by ImageJ software.

[3] = system: endometriotic lesions; details: patients with severe endometriosis and hyperprolactinemia (Gomez et al, 2011); cited from earlier work
[4] = system: AKT; assay: Western blot of P-AKT in eutopic EMSCs; format: cell-based, human; details: eutopic cell lines, 100 nM quinagolide, 24 hours (text; legend 48 h)
Method: (§1) FIG. 6: Quinagolide effect on AKT activation. A: Representative western blot analysis and quantification of AKT levels in eutopic and ectopic EMSCs treated for 48 h with 100 nM quinagolide (Q), compared to untreated cells (CTL). B: Representative western blot analysis and quantification of P-AKT levels, normalized to AKT expression, in eutopic and ectopic EMSCs treated for 48 h with 100 nM quinagolide (Q), respect to untreated cells (CTL). C: Representative western blot analysis and quantification of P-AKT levels in HUVECs, ectopic […] basal), and in […] co-culture with HUVECs, treated or not for 24 h with 100 nM quinagolide (Q100 nM). Data are represented as mean±SD of at least two independent experiments, performed on different EMSC lines, and normalized to Vinculin and to untreated cells (CTL). One-way ANOVA was performed: *=p<0.05 and **=p<0.001 vs CTL. Cell pellets were lysed at 4° C. for 15 minutes in RIPA buffer supplemented with protease and phosphatase inhibitors cocktail and PMSF (Sigma-Aldrich). Proteins were quantified using Bradford solution following the manufacturer procedures (Bio-Rad Inc., Berkely, CA, USA) and aliquots of cell lysates containing 50 μg of proteins were run on 4-12% Mini-Protean TGX Stain-Free Gels (Bio-Rad) under reducing conditions and transferred onto PVDF membrane filters using the iBLOT2 system (Life Technologies). […]

[5] = system: eutopic E-MSCs; assay: Endothelial differentiation (CD31) of eutopic E-MSCs in co-culture with HUVECs; format: cell-based, human; details: 100 nM, 24-h treatment, 48 h co-culture with HUVECs
[6] = system: eutopic E-MSCs; assay: Matrigel transwell invasion assay, eutopic E-MSCs; format: cell-based, human; details: 100 nM, 48 h, vs untreated
Method: FIG. 4: Quinagolide effect on EMSCs invasion. A and B: Representative micrographs (A) and quantification (B) of quinagolide effect (100 nM) on eutopic and ectopic (both ovarian and peritoneal) EMSCs invasion (original magnification: ×100). C: Concentration response effect of quinagolide treated ectopic EMSCs invasion. D and E: Quantification (D) and representative micrographs (E) (original magnification: ×100) of invasion assays performed on ectopic EMSCs (both ovarian and peritoneal), treated with 100 nM quinagolide (Q100 nM), 5 μM spiperone(S) or a combination of quinagolide and spiperone (S+Q100 nM). All invasion data are represented as mean±SD of at least three independent experiments, performed on different EMSC lines, and normalized to untreated cells (CTL). One-way ANova was performed: *=p<0.05 and **=p<0.001 vs CTL. Quinagolide powder (provided by Ferring Pharmaceuticals) was stored at 4° C. and resuspended in dimethylsulphoxide (DMSO) to a stock solution of 1 mM immediately before use. Spiperone powder (Sigma-Aldrich) was resuspended in water to a stock concentration of 1 mM and stored at −20° C. […] At least five pictures per transwell were acquired (original magnification: 100×), and the percentage of transwell area covered by invaded EMSCs was quantitatively measured by ImageJ software.

[7] = long-term prolactinoma treatment (Schultz et al., 2000; Barlier et al., 2006); cited from earlier work
[8] = system: HUVECs; assay: Annexin V apoptosis assay on HUVECs; format: cell-based, human; details: after 24 hours of quinagolide treatment, 10^-5 and 10^-7 M
Method: (§2) FIG. 3: Quinagolide effect on EMSCs apoptosis and proliferation. A: Quinagolide concentration-response curve on ectopic EMSCs in both apoptosis (N=1) and proliferation (N=2) assays. B: Effect of two selected quinagolide doses (10^−5 and 10^−7M) on HUVECs (N=1) and ectopic E-MSCs (N=3) apoptosis and proliferation assays (N=2). Data are represented as mean±SD of the indicated number of experiments and normalized to untreated cells (Control). Annexin V assays were performed using the Muse™ Annexin V & Dead Cell Kit (Millipore), according to the manufacturer's recommendations. Briefly, 20×10^3 cells were plated and after 24 h treated with different concentrations of quinagolide. After 24, 48 and 72 hours, cells were detached and resuspended in Muse™ Annexin V & Dead Cell Kit and the percentage of apoptotic cells (Annexin V+) was measured. Data are expressed as the mean±standard deviation (SD) of the media of absorbance of at least three different experiments and normalized to control.

[9] = system: ectopic EMSCs; assay: Annexin V apoptosis assay on E-MSCs; format: cell-based, human; details: different concentrations, after 24, 48 and 72 hours
Method: as §2

[10] = system: AKT; assay: Western blot of AKT and P-AKT in ectopic EMSCs; format: cell-based, human; details: 100 nM quinagolide
Method: as §1

CCCN1C[C@@H](NS(=O)(=O)N(CC)CC)C[C@@H]2Cc3c(O)cccc3C[C@H]21 [quinagolide, N,N-diethyl-N′-[(3S,4aS,10aR)-6-hydroxy-1-propyl-1,2,3,4,4a,5,10,10a-octahydrobenzo[g]quinolin-3-yl]sulfamide]
levels of VEGF in the coculture model [1]: did not reduce | invasion of ectopic E-MSC lines ([2]; 100 nM, 48 h, Matrigel, vs untreated): significantly reduced | concentration response of invasion reduction ([2]; ectopic EMSCs, 48 h (FIG. 4C)): dose-dependent | size of endometriotic lesions [3]: reduced the size | AKT phosphorylation [4]: significant decrease | percentage of CD31 expressing E-MSCs after co-culture [5]: no significant alteration | invasion of eutopic E-MSC lines [6]: significantly reduced | safety and tolerability [7]: safe and well-tolerated | apoptosis of HUVEC cells [8]: did not show alteration | apoptosis of E-MSCs (Annexin V+) [9]: did not increase apoptosis | total AKT levels ([10]; ectopic EMSCs, 48 h (FIG. 6A)): reduced | AKT phosphorylation ([10]; ectopic cell lines, 24 hours (text; legend 48 h)): significant decrease
